This note sets out measurements from patent publication US4468383A, “Dimeric enkephalins” (The United States of America as represented by the …, priority 1982, dated 1984).

pIC50: −log10 of the molar value.

The assay has as its system NG108-15 cells (a neuroblastoma-glioma hybrid cell line). The experiment in a line: In vitro bioassay in NG108-15 cells stimulated by prostaglandin E1. The class given is cell-based. The settings on record: read-out: IC50 in NG108-15 cells stimulated by PGE1.

In the case of `CC(C)C[C@H](NC(=O)[C@H](Cc1ccccc1)NC(=O)CNC(=O)[C@@H](C)NC(=O)[C@@H](N)Cc1ccc(O)cc1)C(=O)NCCNC(=O)[C@H](CC(C)C)NC(=O)[C@H](Cc1ccccc1)NC(=O)CNC(=O)[C@@H](C)NC(=O)[C@@H](N)Cc1ccc(O)cc1` [DPE2], the pIC50 is around 9.82.

The pIC50 is the IC50 on a negative log10 scale, so that one unit is a factor of ten.
